In ChEMBL document CHEMBL5154870, “Discovery of novel glutaminase 1 allosteric inhibitor with 4-piperidinamine linker and aromatic heterocycles” (Eur J Med Chem, 2022):
Calls of active or inactive are those of the source. The rule behind the calls is not given here.

What was measured:
[1] = tested on: CT26; experiment: Antiproliferative activity against mouse CT26 cells overexpressing GLS1 assessed as inhibition of cell proliferation measured after 72 hrs by MTT assay; format: functional, cell-based; conditions: CT26, 72 h
[2] = Toxicity in nude mouse xenografted with human HCT-116 cells assessed as liver damage by measuring edema and atrophy at 50 to 100 mg/kg, ip measured after 21 days by H and E staining based analysis; format: organism-based; conditions: in vivo, 504 h, dose 50-100 mg/kg, time 21 day
[3] = Cmax in Sprague-Dawley rat at 10 mg/kg, ip measured for 72 hrs by LC-MS/MS analysis; format: ADME, organism-based; set-up: dose 10 mg/kg, time 72 hrs, route ip; conditions: in vivo
[4] = Bioavailability in Sprague-Dawley rat at 10 mg/kg, ip measured for 72 hrs by LC-MS/MS analysis; format: ADME, organism-based; conditions: in vivo
[5] = tested on: MDA-MB-436; experiment: Antiproliferative activity against human MDA-MB-436 cells overexpressing GLS1 assessed as inhibition of cell proliferation measured after 72 hrs by MTT assay; format: functional, cell-based; conditions: MDA-MB-436, 72 h
[6] = AUC (0 to t) in Sprague-Dawley rat at 10 mg/kg, ip measured for 72 hrs by LC-MS/MS analysis; format: ADME, organism-based; set-up: time 72 hrs, dose 10 mg/kg, route ip; conditions: in vivo
[7] = biological target: T1, Glutaminase kidney isoform, mitochondrial (Homo sapiens) (UniProt O94925); conditions: HCT-116, filed as negative allosteric modulator, dose 100-300 nM, time 12.0 hrs
T1 sequence (whole entry): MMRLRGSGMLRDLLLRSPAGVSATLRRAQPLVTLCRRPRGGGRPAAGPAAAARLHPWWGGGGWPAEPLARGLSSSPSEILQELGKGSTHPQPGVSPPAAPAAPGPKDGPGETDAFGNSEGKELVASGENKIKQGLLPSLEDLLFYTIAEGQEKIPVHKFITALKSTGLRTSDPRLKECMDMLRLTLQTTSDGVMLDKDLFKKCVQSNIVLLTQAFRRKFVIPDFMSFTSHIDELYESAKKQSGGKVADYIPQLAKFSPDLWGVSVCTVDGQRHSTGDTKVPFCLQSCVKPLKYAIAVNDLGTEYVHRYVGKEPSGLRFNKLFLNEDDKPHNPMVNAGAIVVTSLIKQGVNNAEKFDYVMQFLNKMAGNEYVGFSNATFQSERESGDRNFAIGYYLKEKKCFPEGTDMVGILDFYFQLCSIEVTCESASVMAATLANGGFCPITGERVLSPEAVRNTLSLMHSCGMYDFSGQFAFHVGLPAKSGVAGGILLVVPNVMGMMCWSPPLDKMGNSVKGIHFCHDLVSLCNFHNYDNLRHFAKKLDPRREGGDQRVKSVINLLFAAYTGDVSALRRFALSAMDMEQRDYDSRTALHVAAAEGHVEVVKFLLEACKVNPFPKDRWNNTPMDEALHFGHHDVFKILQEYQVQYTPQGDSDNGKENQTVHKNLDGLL

[8] = AUC (0 to infinity) in Sprague-Dawley rat at 10 mg/kg, ip measured for 72 hrs by LC-MS/MS analysis; format: ADME, organism-based; set-up: dose 10 mg/kg, time 72 hrs, route ip; conditions: in vivo
[9] = biological target: T1, Glutaminase kidney isoform, mitochondrial (Homo sapiens); conditions: HCT-116, filed as negative allosteric modulator, dose 100-300 nM, time 12.0 hrs; remark: listed apart in the source
[10] = tested on: HCT-116; experiment: Induction of apoptosis in human HCT-116 cells assessed as early apoptotic cells at 50 nM measured after 24 hrs by Annexin V-FITC/PI staining based flow cytometry method (reference value: 4.65 %); format: functional
[11] = Toxicity in nude mouse xenografted with human HCT-116 cells assessed as kidney damage by measuring edema and atrophy at 50 to 100 mg/kg, ip measured after 21 days by H and E staining based analysis; format: organism-based; conditions: in vivo, 504 h, dose 50-100 mg/kg, time 21 day
[12] = Apparent volume of distribution in Sprague-Dawley rat at 5 mg/kg, iv measured for 72 hrs by LC-MS/MS analysis; format: ADME, organism-based; conditions: in vivo
[13] = Apparent clearance in Sprague-Dawley rat at 10 mg/kg, ip measured for 72 hrs by LC-MS/MS analysis; format: ADME, organism-based; conditions: in vivo
[14] = tested on: H22; experiment: Antiproliferative activity against mouse H22 cells assessed as inhibition of cell proliferation measured after 72 hrs by MTT assay; format: functional, cell-based; conditions: H22, 72 h
[15] = Toxicity in nude mouse xenografted with human HCT-116 cells assessed as lung damage by measuring edema and atrophy at 50 to 100 mg/kg, ip measured after 21 days by H and E staining based analysis; format: organism-based; conditions: in vivo, 504 h, dose 50-100 mg/kg, time 21 day
[16] = biological target: T1, Glutaminase kidney isoform, mitochondrial (Homo sapiens); conditions: filed as negative allosteric modulator
Description: Binding affinity to human GLS1 assessed as stabilization of protein by measuring change in melting temperature by protein thermal shift assay

[17] = Toxicity in nude mouse xenografted with human HCT-116 cells assessed as spleen damage by measuring edema and atrophy at 50 to 100 mg/kg, ip measured after 21 days by H and E staining based analysis; format: organism-based; conditions: in vivo, 504 h, dose 50-100 mg/kg, time 21 day
[18] = biological target: T1, Glutaminase kidney isoform, mitochondrial (Homo sapiens); conditions: HCT-116, filed as negative allosteric modulator, dose 100-300 nM, time 12.0 hrs; remark: listed apart in the source
[19] = tested on: HCT-116; experiment: Induction of apoptosis in human HCT-116 cells assessed as necrotic cells at 50 nM measured after 24 hrs by Annexin V-FITC/PI staining based flow cytometry method (reference value: 0.48 %); format: functional
[20] = biological target: T2, Glutaminase kidney isoform, mitochondrial (Homo sapiens, UniProt O94925); experiment: Binding affinity to human GLS1 assessed as dissociation constant by surface plasmon resonance analysis
T2 sequence (O94925 whole entry): T1 sequence (whole entry)

[21] = biological target: T2, Glutaminase kidney isoform, mitochondrial; experiment: Allosteric inhibition of human GLS1 using glutamine as substrate incubated for 60 mins by NADH/NADPH-based absorbance analysis
[22] = Half life in Sprague-Dawley rat at 10 mg/kg, ip measured for 72 hrs by LC-MS/MS analysis; format: ADME, organism-based; conditions: in vivo
[23] = tested on: HCT-116; experiment: Induction of apoptosis in human HCT-116 cells assessed as late apoptotic cells at 30 nM measured after 24 hrs by Annexin V-FITC/PI staining based flow cytometry method (reference value: 3.55 %); format: functional
[24] = tested on: HCT-116; experiment: Induction of apoptosis in human HCT-116 cells assessed as early apoptotic cells at 200 nM measured after 24 hrs by Annexin V-FITC/PI staining based flow cytometry method (reference value: 4.65 %); format: functional
[25] = tested on: HCT-116; experiment: Induction of apoptosis in human HCT-116 cells assessed as early apoptotic cells at 30 nM measured after 24 hrs by Annexin V-FITC/PI staining based flow cytometry method (reference value: 4.65 %); format: functional
[26] = tested on: HCT-116; experiment: Induction of apoptosis in human HCT-116 cells assessed as necrotic cells at 30 nM measured after 24 hrs by Annexin V-FITC/PI staining based flow cytometry method (reference value: 0.48 %); format: functional
[27] = AUC (0 to infinity) in Sprague-Dawley rat at 5 mg/kg, iv measured for 72 hrs by LC-MS/MS analysis; format: ADME, organism-based; set-up: time 72 hrs, dose 5 mg/kg, route iv; conditions: in vivo
[28] = MRT (0 to infinity) in Sprague-Dawley rat at 5 mg/kg, iv measured for 72 hrs by LC-MS/MS analysis; format: ADME, organism-based; conditions: in vivo
[29] = Half life in Sprague-Dawley rat at 5 mg/kg, iv measured for 72 hrs by LC-MS/MS analysis; format: ADME, organism-based; conditions: in vivo
[30] = MRT (0 to infinity) in Sprague-Dawley rat at 10 mg/kg, ip measured for 72 hrs by LC-MS/MS analysis; format: ADME, organism-based; conditions: in vivo

With `O=C(Cc1ccccc1)Nc1nnc(NC2CCN(c3nnc(NC(=O)c4nccn4Cc4ccc(C(F)(F)F)cc4)s3)CC2)s1` the IC50 [1] was 0.32 µM, the Activity [2] was “Non-Toxic” and the Cmax [3] was 0.262 µg/mL. The bioavailability [4] was 20.9%, the IC50 [5] was 0.37 µM and the AUC(0-t) at 72 h [6] was 2.9 µg·h/mL. For the same compound, the inhibition [7] was “Active”, the AUC(0-inf) [8] was 3.49 µg·h/mL and the inhibition [9] was “Active”. For the same compound, the Activity [10] was 23.4%, the Activity [11] was “Non-Toxic” and the Vd/F [12] was 7.31 L/kg. The CL/F [13] was 2.93 L/h/kg, the IC50 [14] was 10.8 µM and the Activity [15] was “Non-Toxic”. The ΔTm [16] was 14.9 °C, the Activity [17] was “Non-Toxic” and the inhibition [18] was “Active”. For the same compound, the Activity [19] was 0.01%, the Kd [20] was 0.052 µM and the IC50 [21] was 0.0119 µM. For the same compound, the half-life [22] was 8.92 h, the Activity [23] was 4.99% and the Activity [24] was 82.49%. The Activity [25] was 13.6%, the Activity [26] was 0.048% and the AUC(0-inf) [27] was 7.31 µg·h/mL. It also gave an MRT inf [28] of 4.97 h, a half-life [29] of 7.44 h and an MRT inf [30] of 13 h.
